Measurements taken from patent US20050143453A1, “Selective preventing and therapeutic agents for progressive lesion after organic damage” (priority 2000, published 2005).
Read-outs that look alike come from different tables or passages of the source.

What was measured:
[1] = Acute and chronic toxicity tests (Test Example 5); format: in vivo; settings: subcutaneously 90 mg/kg/day for ten days
Method: Acute and Chronic Toxicity Tests
Toxicity test of benzyl 2-chloro-5-oxotetrahydrofuran-2-carboxylate represented by the formula (6-1) manufactured in Example 8 and ethyl 2-ketoglutarate represented by the formula (9-1) was carried out.

[2] = test system: induction of effector macrophage by contact of human PBMC with mitomycin-treated human PBMC (allo-MLC); experiment: SPFC production by allo-MLC stimulation (Test Example 2); format: cell-based
[3] = test system: kidney of chronic puromycin nephrosis rat; experiment: Puromycin chronic nephrosis model in rat (CPN, Test Example 4); format: in vivo
Method: Evaluation Using Puromycin Chronic Nephrosis Model in Rat
Male SD rat of 8 weeks age of about 250 g was used and […] of puromycin were intravenously administered once according to a method of Diamond, et al. (J. R. Diamond, I. Pesek, S. Ruggeri, M. J. Karnovsky: Essential fatty acid deficiency during acute puromycin nephrosis ameliorates late renal injury. Am. J. Physiol, 257: F798˜F807, 1989). There was induced a chronic puromycin nephrosis rat where albuminuria increased from about tenth to twelfth week. After eighth week from administration of puromycin, each of compound (9-1) and compound (6-1) was subcutaneously injected at the dose of 30 mg/kg/day everyday until the 22nd week.
As a functional evaluation of kidney, albumin in urine was measured every week using a kit for the measurement of albumin. On the 22nd week, the rat was killed and anatomized to observe functional and morphological changes of kidney.

[4] = test system: lesion of tubulointerstitial tissue / glomerulus; experiment: Suppression of renal lesion in vivo by active metabolites (model not stated)
[5] = test system: obstruction-released kidney of male SD rats; experiment: Obstruction release model after complete obstruction of unilateral ureter for 14 days (UUO/Release, Test Example 3); format: in vivo, rat; parameters: key to Suppressive Effect to Glomerular Lesion / Suppressive Effect to Lesion of Tubulointerstitial Tissue: ∘: available; Δ: somewhat available; x: not available
Method: Obstruction Release Model after Complete Obstruction of Unilateral Ureter for 14 Days
Experimental models were prepared by a method devised and established by Ishibashi (Michio Ishibashi, et al.: The Japanese Journal of Nephrology, 42: 248, 2000) using male SD rats of 8-9 weeks age and about 280 g. Thus, the rat was laparotomized under anesthetization with ether and ureter was ligated with 7-0 Nylon at the height of the margin of lower pole of left kidney to close the abdomen. On the 14th day after obstruction, the obstruction was released and urinary passage was reconstructed using a cuff. Thus, after 14 days, the part of ligated obstructed ureter was resected, a polyethylene tube of 25 gages (manufactured by Nippon Sherwood) was used as a cuff and inserted into and retained at the lumen from the cut end of the lower normal ureter, then the cuff was also retained in the expanded upper ureter and each of them was ligated and fixed by 7-0 Nylon to reconstruct the urinary passage. At the same time, the right kidney at the opposite side was excised. After the release of the obstruction, body weight was measured, blood was collected on the 2nd day, 5th day and 7th day from the release to measure serum creatinine, then the rat was sacrificed under anesthetization and the left obstruction-released kidney was excised. With regard to the excised kidney, there were carried out measurement of weight of the kidney and pathological test for the kidney.
An in vivo biological test was carried out for the γ-lactone derivatives according to the present invention using the above models. With regard to the test compound, bulk powder of the test compound was dissolved in an aseptic physiological saline together with gum arabic and the final concentration of gum arabic was 5%(vol/vol). The concentration of the test compound 30 mg/ml was suspended in 5% gum arabic-saline solution. The preparation was subcutaneously injected at the dose of 30 mg/kg every day throughout the experiment. With regard to the test compound, there were used (9-1), (4-2) and (7-3) as the compounds of group I suppressing the SPFC production by allo-MLC stimulation, i.e., the compounds which selectively suppress the induction of effector macrophage in the presence of allo-MLC while there was used (3-2) as the compound of group II suppressing the SPFC production by LPS stimulation, i.e., the compounds which selectively suppress the induction of effector macrophage in the presence of LPS.
In the Table, “functional classification” of the compound means the above group I, group II and group III. “Compound” means the compound bearing each of the above-mentioned compound numbers. The fact whether glomerular lesion was suppressed was judged by the ameriolation of the lesions such as thickness of wall of Bowman's capsule, hyperplasia of mesangial cells and glomerular sclerosis. The fact whether lesion of tubulointerstitial tissue was suppressed was judged by the ameriolation of the lesions such as thickness of basement membrane of tubules, cellular infiltration and fibrosis of interstitial tissue. In the table, “control” is the result when the same test as above was carried out using 5% gum arabic only which is a solvent.
In order to further confirm whether the preventive and therapeutic effect of the γ-lactone derivatives of the present invention to the target cell damage is selective, (7-3) of the group I and (6-1) of the group II were used as test compounds and they were subcutaneously injected at the dose of 30 mg/kg every day and compared with the control group. With regard to the control group, only 5% gum arabic which is a solvent was used and the same test as above was carried out.

[6] = 30 mg/kg/day subcutaneously from 8th to 22nd week after puromycin
[7] = 30 mg/kg subcutaneously every day, Table 2
[8] = Experimental Model of Rat: UUO/Release

CCOC(=O)C(=O)CCC(=O)O [(9-1), ethyl 2-ketoglutarate]
toxicity finding [1]: an increase in weights of the liver and the spleen in a light degree | IC50 ([2]; Table 5, read-out: Inhibiting Concentration for SPEC Production by allo-MLC Stimulation (μM: IC50)): 0.01 µM | IC50 ([2]; human PBMC with mitomycin-treated human PBMC, incubated 6 days, Table 1, read-out: SPFC Production Inhibiting Concentration by all-MLC Stimulation (μM: IC50)): 0.01 µM | Functional Classification ([2]; selectivity allo-MLC versus LPS stimulation, Table 1): Group I | suppression of lesion of tubulointerstitial tissues ([3]; 30 mg/kg/day subcutaneously): well suppressed | Rate of Cases where Glomerular Lesion was Suppressed [3, 6]: 50% (3/6) | Rate of Cases where Lesion of Tubulointerstitial Tissue was Suppressed [3, 6]: 83% (5/6) | suppression of lesion in tubulointerstitial tissue in vivo [4]: shows an activity for suppressing | selectivity of the suppressive effect on renal lesions ([5]; 30 mg/kg subcutaneously every day): selective suppressive effect | Rate of Cases where Glomerular Lesion was Suppressed [5, 7]: 0% (0/4) | Rate of Cases where tubulointerstitial Lesion was Suppressed [5, 7]: 100% (4/4) | Serum Creatinine level (mg/dl) on the 7th Day from Release of Obstruction [5, 7]: 2.0 ± 0.2 mg/dL | Weight of Kidney (g) on the 7th Day from Release of Obstruction [5, 7]: 3.01 ± 0.56 g | Suppressive Effect to Glomerular Lesion [5, 8]: x | Suppressive Effect to Lesion of Tubulointerstitial Tissue [5, 8]: ∘
